Literature values, collected in patent US10561602B2 (priority 2015, dated 2020).

How the values were obtained:
[1] = n-octanol/0.05 M phosphate buffer at pH 7.4
[2] = water and both basic and acidic aqueous solutions

In the case of `CC(C)C[C@H](CN)CC(=O)O` [Pregabalin, (S)-3-(aminomethyl)-5-methylhexanoic acid], the “log of the partition coefficient” value [1] is given as “about −1.35” and the solubility [2] is given as “freely soluble”.
